According to PubChem BioAssay (NCI):
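Exposure lasted 48 hours, with cells grown in 96-well plates and compounds tested at five concentrations. GI50 = concentration required for 50% inhibition of growth. TGI: concentration producing complete growth inhibition.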

How the values were obtained:
Experiment in all cases: DTP human tumour cell line panel, 48 h
M14 melanoma = system: M14 melanoma
RPMI-8226 leukemia = system: RPMI-8226 leukemia
NCI-H522 lung = system: NCI-H522 lung
NCI-H226 lung = system: NCI-H226 lung
ACHN renal = system: ACHN renal
HL-60(TB) leukemia = system: HL-60(TB) leukemia
A549 NSCLC = system: A549 NSCLC
HCC-2998 colon = system: HCC-2998 colon
MOLT-4 leukemia = system: MOLT-4 leukemia
SW-620 colon = system: SW-620 colon
SK-MEL-28 melanoma = system: SK-MEL-28 melanoma
UACC-257 melanoma = system: UACC-257 melanoma
DU-145 prostate = system: DU-145 prostate
CCRF-CEM leukemia = system: CCRF-CEM leukemia
MDA-MB-435 = system: MDA-MB-435
SK-MEL-5 melanoma = system: SK-MEL-5 melanoma
OVCAR-8 ovarian = system: OVCAR-8 ovarian
KM12 colon = system: KM12 colon
K-562 leukemia = system: K-562 leukemia
TK-10 renal = system: TK-10 renal
SK-MEL-2 melanoma = system: SK-MEL-2 melanoma
SF-539 CNS = system: SF-539 CNS
PC-3 prostate = system: PC-3 prostate
SR leukemia = system: SR leukemia
BT-549 breast = system: BT-549 breast
MCF7 breast = system: MCF7 breast
NCI-H23 lung = system: NCI-H23 lung
OVCAR-5 ovarian = system: OVCAR-5 ovarian
HCT-15 colon = system: HCT-15 colon
OVCAR-3 ovarian = system: OVCAR-3 ovarian
SK-OV-3 ovarian = system: SK-OV-3 ovarian
IGROV1 ovarian = system: IGROV1 ovarian
COLO 205 colon = system: COLO 205 colon
SN12C renal = system: SN12C renal
MDA-MB-231 breast = system: MDA-MB-231 breast
HT29 colon = system: HT29 colon
A498 renal = system: A498 renal
MALME-3M melanoma = system: MALME-3M melanoma
SF-295 CNS = system: SF-295 CNS
T-47D breast = system: T-47D breast
LOX IMVI melanoma = system: LOX IMVI melanoma
NCI-H460 lung = system: NCI-H460 lung
HCT-116 colon = system: HCT-116 colon
SNB-19 CNS = system: SNB-19 CNS
UO-31 renal = system: UO-31 renal
RXF 393 renal = system: RXF 393 renal
NCI/ADR-RES ovarian = system: NCI/ADR-RES ovarian
UACC-62 melanoma = system: UACC-62 melanoma
HS 578T breast = system: HS 578T breast
CAKI-1 renal = system: CAKI-1 renal
EKVX NSCLC = system: EKVX NSCLC
HOP-62 NSCLC = system: HOP-62 NSCLC
U251 CNS = system: U251 CNS
HOP-92 NSCLC = system: HOP-92 NSCLC
786-0 renal = system: 786-0 renal
SNB-75 CNS = system: SNB-75 CNS
SF-268 CNS = system: SF-268 CNS
OVCAR-4 ovarian = system: OVCAR-4 ovarian

Question: How did the GI50 (M14 melanoma) turn out when `O=Cc1cn(Cc2cccc(Cl)c2)c2ccccc12` was run?
Answer: 11.4 µM

Question: What about the TGI (M14 melanoma) of the same compound?
Answer: 26.9 µM

Question: What about the GI50 (RPMI-8226 leukemia) of the same compound?
Answer: 4.76 µM

Question: What about the TGI (RPMI-8226 leukemia) of the same compound?
Answer: 25.2 µM

Question: What about the GI50 (NCI-H522 lung) of the same compound?
Answer: 20.3 µM

Question: And the TGI (NCI-H522 lung)?
Answer: 45.7 µM

Question: What about the TGI (NCI-H226 lung) of the same compound?
Answer: 0.0499 µM

Question: And the GI50 (ACHN renal)?
Answer: 12.9 µM

Question: And the TGI (ACHN renal)?
Answer: 26.8 µM

Question: What about the GI50 (HL-60(TB) leukemia) of the same compound?
Answer: 7.5 µM

Question: What about the TGI (HL-60(TB) leukemia) of the same compound?
Answer: 29.9 µM

Question: What about the GI50 (A549 NSCLC) of the same compound?
Answer: 15.9 µM

Question: And the TGI (A549 NSCLC)?
Answer: 48.5 µM

Question: And the GI50 (HCC-2998 colon)?
Answer: 12.5 µM

Question: What about the TGI (HCC-2998 colon) of the same compound?
Answer: 26.2 µM

Question: And the GI50 (MOLT-4 leukemia)?
Answer: 6.69 µM

Question: What about the TGI (MOLT-4 leukemia) of the same compound?
Answer: 31.8 µM

Question: What about the GI50 (SW-620 colon) of the same compound?
Answer: 7.37 µM

Question: What about the TGI (SW-620 colon) of the same compound?
Answer: 23.1 µM

Question: What about the GI50 (SK-MEL-28 melanoma) of the same compound?
Answer: 15.9 µM

Question: And the TGI (SK-MEL-28 melanoma)?
Answer: 31.1 µM

Question: What about the GI50 (UACC-257 melanoma) of the same compound?
Answer: 1.05 µM

Question: What about the TGI (UACC-257 melanoma) of the same compound?
Answer: 3.63 µM

Question: What about the GI50 (DU-145 prostate) of the same compound?
Answer: 12.5 µM

Question: What about the TGI (DU-145 prostate) of the same compound?
Answer: 25 µM

Question: What about the GI50 (CCRF-CEM leukemia) of the same compound?
Answer: 9.99 µM

Question: What about the TGI (CCRF-CEM leukemia) of the same compound?
Answer: 50.3 µM

Question: What about the GI50 (MDA-MB-435) of the same compound?
Answer: 12.2 µM

Question: And the TGI (MDA-MB-435)?
Answer: 28.5 µM

Question: And the GI50 (SK-MEL-5 melanoma)?
Answer: 4.1 µM

Question: What about the TGI (SK-MEL-5 melanoma) of the same compound?
Answer: 17.4 µM

Question: And the GI50 (OVCAR-8 ovarian)?
Answer: 10.3 µM

Question: And the TGI (OVCAR-8 ovarian)?
Answer: 31.3 µM

Question: And the GI50 (KM12 colon)?
Answer: 14.7 µM

Question: And the TGI (KM12 colon)?
Answer: 35.1 µM

Question: And the GI50 (K-562 leukemia)?
Answer: 2.97 µM

Question: What about the TGI (K-562 leukemia) of the same compound?
Answer: > 56.7 µM

Question: And the GI50 (TK-10 renal)?
Answer: 0.136 µM

Question: What about the TGI (TK-10 renal) of the same compound?
Answer: 1.27 µM

Question: What about the GI50 (SK-MEL-2 melanoma) of the same compound?
Answer: 7.7 µM

Question: And the TGI (SK-MEL-2 melanoma)?
Answer: 26.4 µM

Question: And the GI50 (SF-539 CNS)?
Answer: 14.7 µM

Question: And the TGI (SF-539 CNS)?
Answer: 28 µM

Question: What about the GI50 (PC-3 prostate) of the same compound?
Answer: 5.76 µM

Question: And the TGI (PC-3 prostate)?
Answer: 22.4 µM

Question: And the GI50 (SR leukemia)?
Answer: 23.9 µM

Question: What about the TGI (SR leukemia) of the same compound?
Answer: 55.7 µM

Question: And the GI50 (BT-549 breast)?
Answer: 5.25 µM

Question: What about the TGI (BT-549 breast) of the same compound?
Answer: 18.6 µM

Question: What about the GI50 (MCF7 breast) of the same compound?
Answer: 1.85 µM

Question: And the TGI (MCF7 breast)?
Answer: 19.4 µM

Question: What about the GI50 (NCI-H23 lung) of the same compound?
Answer: 9.33 µM

Question: What about the TGI (NCI-H23 lung) of the same compound?
Answer: 26.9 µM

Question: And the GI50 (OVCAR-5 ovarian)?
Answer: 0.0263 µM

Question: What about the TGI (OVCAR-5 ovarian) of the same compound?
Answer: 0.504 µM

Question: What about the GI50 (HCT-15 colon) of the same compound?
Answer: 11.6 µM

Question: What about the TGI (HCT-15 colon) of the same compound?
Answer: 25.2 µM

Question: And the GI50 (OVCAR-3 ovarian)?
Answer: 2.7 µM

Question: What about the TGI (OVCAR-3 ovarian) of the same compound?
Answer: 16.6 µM

Question: What about the GI50 (SK-OV-3 ovarian) of the same compound?
Answer: 1.8 µM

Question: What about the TGI (SK-OV-3 ovarian) of the same compound?
Answer: 16 µM

Question: What about the GI50 (IGROV1 ovarian) of the same compound?
Answer: 0.263 µM

Question: And the TGI (IGROV1 ovarian)?
Answer: 14.7 µM

Question: And the GI50 (COLO 205 colon)?
Answer: 0.355 µM

Question: What about the TGI (COLO 205 colon) of the same compound?
Answer: 14 µM

Question: And the GI50 (SN12C renal)?
Answer: 10.7 µM

Question: And the TGI (SN12C renal)?
Answer: 23.5 µM

Question: What about the GI50 (MDA-MB-231 breast) of the same compound?
Answer: 7.72 µM

Question: And the TGI (MDA-MB-231 breast)?
Answer: 21.5 µM

Question: What about the GI50 (HT29 colon) of the same compound?
Answer: 13 µM

Question: What about the TGI (HT29 colon) of the same compound?
Answer: 32.3 µM

Question: And the GI50 (A498 renal)?
Answer: 0.135 µM

Question: What about the TGI (A498 renal) of the same compound?
Answer: 0.299 µM

Question: What about the GI50 (MALME-3M melanoma) of the same compound?
Answer: 13.5 µM

Question: And the TGI (MALME-3M melanoma)?
Answer: 33.8 µM

Question: And the GI50 (SF-295 CNS)?
Answer: 0.948 µM

Question: What about the TGI (SF-295 CNS) of the same compound?
Answer: 14.2 µM

Question: And the GI50 (T-47D breast)?
Answer: 0.736 µM

Question: And the TGI (T-47D breast)?
Answer: 13.4 µM

Question: What about the GI50 (LOX IMVI melanoma) of the same compound?
Answer: 7.4 µM

Question: And the TGI (LOX IMVI melanoma)?
Answer: 21 µM

Question: What about the GI50 (NCI-H460 lung) of the same compound?
Answer: < 0.0112 µM

Question: And the TGI (NCI-H460 lung)?
Answer: 15.5 µM

Question: What about the GI50 (HCT-116 colon) of the same compound?
Answer: 2.39 µM

Question: And the TGI (HCT-116 colon)?
Answer: 16 µM

Question: And the GI50 (SNB-19 CNS)?
Answer: 12.9 µM

Question: What about the TGI (SNB-19 CNS) of the same compound?
Answer: 27.3 µM

Question: What about the GI50 (UO-31 renal) of the same compound?
Answer: 5.49 µM

Question: And the TGI (UO-31 renal)?
Answer: 21.1 µM

Question: What about the TGI (RXF 393 renal) of the same compound?
Answer: > 33 µM

Question: What about the GI50 (NCI/ADR-RES ovarian) of the same compound?
Answer: 7.99 µM

Question: And the TGI (NCI/ADR-RES ovarian)?
Answer: 28.2 µM

Question: And the GI50 (UACC-62 melanoma)?
Answer: 0.533 µM

Question: What about the TGI (UACC-62 melanoma) of the same compound?
Answer: 6.45 µM

Question: And the GI50 (HS 578T breast)?
Answer: 7.27 µM

Question: What about the TGI (HS 578T breast) of the same compound?
Answer: 34.1 µM

Question: What about the GI50 (CAKI-1 renal) of the same compound?
Answer: 0.214 µM

Question: What about the TGI (CAKI-1 renal) of the same compound?
Answer: 1.89 µM

Question: And the GI50 (EKVX NSCLC)?
Answer: 9.9 µM

Question: What about the TGI (EKVX NSCLC) of the same compound?
Answer: 25 µM

Question: And the GI50 (HOP-62 NSCLC)?
Answer: 2.57 µM

Question: And the TGI (HOP-62 NSCLC)?
Answer: 19.5 µM

Question: And the GI50 (U251 CNS)?
Answer: 9.61 µM

Question: And the TGI (U251 CNS)?
Answer: 21.8 µM

Question: What about the GI50 (HOP-92 NSCLC) of the same compound?
Answer: 6.19 µM

Question: And the TGI (HOP-92 NSCLC)?
Answer: 20.8 µM

Question: What about the GI50 (786-0 renal) of the same compound?
Answer: 8.95 µM

Question: What about the TGI (786-0 renal) of the same compound?
Answer: 24.4 µM

Question: What about the GI50 (SNB-75 CNS) of the same compound?
Answer: 8.99 µM

Question: What about the TGI (SNB-75 CNS) of the same compound?
Answer: 25.1 µM

Question: And the GI50 (SF-268 CNS)?
Answer: 11.7 µM

Question: And the TGI (SF-268 CNS)?
Answer: 26.3 µM

Question: What about the GI50 (OVCAR-4 ovarian) of the same compound?
Answer: 2.88 µM

Question: And the TGI (OVCAR-4 ovarian)?
Answer: 18.3 µM
